Reference: BindingDB's records for doi:10.1016/S0960-894X(00)80304-2 (1993)

Molecular target: Leukotriene B4 receptor 1 (Cavia porcellus)
Assay: Binding affinity against LTB4 receptor in guinea pig membrane

| Ki | Compound |
| --- | --- |
| 19 nM | CCCc1c(OCCCOc2cc(O)c(C(C)=O)cc2CC)cccc1OC(C)C(=O)O (configuration not stated) [2-{3-[3-(4-Acetyl-2-ethyl-5-hydroxy-phenoxy)-propoxy]-2-propyl-phenoxy}-propionic acid] |
| 5 nM | CCCc1c(OCCCOc2cc(O)c(C(C)=O)cc2CC)cccc1OCC(=O)O [{3-[3-(4-Acetyl-2-ethyl-5-hydroxy-phenoxy)-propoxy]-2-propyl-phenoxy}-acetic acid] |
